Data published in US20230398130A1, “METHODS AND COMPOSITIONS FOR DIFFERENTIATING STEM CELLS” (Massachusetts Institute of Technology, priority 2020, published 2023).

What was measured:
[1] = tested on: ISC-enriched organoids; test: Primary screen, 384-well 2.5-D organoid differentiation (ENR+CD, 6 days): basal lysozyme secretion (LYZ.NS); assay type: cell-based, murine; conditions: for Dose.FC.LYZ.NS: FC vs plate median; for Z.LYZ.NS: standard z score of FC
Excerpt: (§1) High-throughput screening.

[2] = tested on: ISC-enriched organoids; test: Primary screen, 384-well 2.5-D organoid differentiation (ENR+CD, 6 days): carbachol-induced lysozyme secretion (LYZ.S); assay type: cell-based, murine; conditions: FC vs plate median
Excerpt: as §1

[3] = tested on: ISC-enriched organoids; test: Secondary (validation) screen, 384-well 2.5-D, ENR+CD 6 days, n=8 wells, vs ENR+CD+DMSO control: ATP (CTG); assay type: cell-based, murine; design: key to Dose.FC.CTG: log10 fold change vs median of vehicle control wells
Experimental: (§2) Drugs were tested at a narrowed dose range around each treatment's identified optimal dose from the primary screen (4× below, 2× above and below).
as §1
(§3) Secondary lysozyme secretion assay screen. Confirmatory secondary screening with primary hits was performed using the above 384-well plate method. The screen was conducted with 4-plate replicates with a base media of ENR+CD. Media was supplemented with compound at day 0 and day 3 (n=8 well replicates per dose) at four different doses: two-fold above, two-fold below, and four-fold below the optimal final dose for each respective treatment. Additionally, each plate carried a large number of ENR+DMSO or ENR+CD+DMSO (vehicle) control wells (n=100 for ATP, and n=25 for LYZ.NS and LYZ.S) for robust normalization. ATP, non-stimulated lysozyme activity and CCh-stimulated lysozyme activity was again measured and the collected data was again processed in a custom R-script, per primary screen with slight modification. Values were log10 transformed, and a plate-wise FC was calculated for each well based on the median value of ENR+CD+DMSO (vehicle) control wells to normalize plate to plate variability.

[4] = tested on: ISC-enriched organoids; test: Secondary (validation) screen, 384-well 2.5-D, ENR+CD 6 days, n=8 wells, vs ENR+CD+DMSO control: basal lysozyme secretion (LYZ.NS); assay type: cell-based, murine; design: key to Dose.FC.LYZ.NS: log10 fold change vs median of vehicle control wells
Experimental: as §2, §1, §3

[5] = tested on: ISC-enriched organoids; test: Secondary (validation) screen, 384-well 2.5-D, ENR+CD 6 days, n=8 wells, vs ENR+CD+DMSO control: carbachol-induced lysozyme secretion (LYZ.S); assay type: cell-based, murine
Experimental: as §2, §1, §3

[6] = tested on: ISC-enriched organoids; test: Primary screen, 384-well 2.5-D organoid differentiation (ENR+CD, 6 days, Target Selective Inhibitor Library, vs whole-plate median): ATP (CellTiter-Glo 3D, CTG); conditions: for Dose.FC.CTG: FC vs plate median; for Z.CTG: standard z score of FC

Structure (SMILES): NC1(Cc2ccc(Cl)cc2)CCN(c2ncnc3[nH]ccc23)CC1 [CCT128930, reference compound]
- Dose.FC.LYZ.NS ([1]; Dose 0.08 uM, ENR+CD, 6 days): 0.323 log 2 fold change
- Z.LYZ.NS ([1]; Dose 0.08 uM): 2.811
- Dose.FC.LYZ.NS ([1]; Dose 0.40 uM, ENR+CD, 6 days): −0.018 log 2 fold change
- Z.LYZ.NS ([1]; Dose 0.40 uM): −0.154
- Dose.FC.LYZ.NS ([1]; Dose 2.00 uM, ENR+CD, 6 days): 0.073 log 2 fold change
- Z.LYZ.NS ([1]; Dose 2.00 uM): 0.633
- Dose.FC.LYZ.NS ([1]; Dose 10.00 uM, ENR+CD, 6 days): −0.150 log 2 fold change
- Z.LYZ.NS ([1]; Dose 10.00 uM): −1.307
- Dose.FC.LYZ.S ([2]; Dose 0.08 uM, ENR+CD, 6 days): 0.266 log 2 fold change
- Dose.FC.LYZ.S ([2]; Dose 0.40 uM, ENR+CD, 6 days): −0.007 log 2 fold change
- Dose.FC.LYZ.S ([2]; Dose 2.00 uM, ENR+CD, 6 days): 0.053 log 2 fold change
- Dose.FC.LYZ.S ([2]; Dose 10.00 uM, ENR+CD, 6 days): −0.201 log 2 fold change
- Dose.FC.CTG ([3]; Dose 0.02 uM): −0.117
- Z.CTG ([3]; Dose 0.02 uM): −1.054
- repSSMD.CTG ([3]; Dose 0.02 uM): −0.787
- Dose.FC.CTG ([3]; Dose 0.04 uM): 0.122
- Z.CTG ([3]; Dose 0.04 uM): 1.101
- repSSMD.CTG ([3]; Dose 0.04 uM): 0.922
- Dose.FC.CTG ([3]; Dose […]): −0.088
- Dose.FC.CTG ([3]; dose 0.08 uM): 0.166
- Z.CTG ([3]; dose 0.08 uM): 1.494
- repSSMD.CTG ([3]; dose 0.08 uM): 1.047
- Dose.FC.LYZ.NS ([4]; Dose 0.02 uM): −0.241
- Z.LYZ.NS ([4]; Dose 0.02 uM): −1.927
- repSSMD.LYZ.NS ([4]; Dose 0.02 uM): −2.551
- Dose.FC.LYZ.NS ([4]; Dose 0.04 uM): −0.020
- Z.LYZ.NS ([4]; Dose 0.04 uM): −0.164
- repSSMD.LYZ.NS ([4]; Dose 0.04 uM): −0.204
- Dose.FC.LYZ.NS ([4]; Dose […]): −0.160
- Dose.FC.LYZ.NS ([4]; dose 0.08 uM): 0.031
- Z.LYZ.NS ([4]; dose 0.08 uM): 0.248
- repSSMD.LYZ.NS ([4]; dose 0.08 uM): 0.366
- Z.LYZ.S ([5]; Dose 0.02 uM): −2.445
- log10 fold change in stimulated lysozyme secretion vs vehicle control ([5]; Dose 0.02 uM): −0.319
- repSSMD.LYZ.S ([5]; Dose 0.02 uM): −3.825
- Z.LYZ.S ([5]; Dose 0.04 uM): −0.108
- log10 fold change in stimulated lysozyme secretion vs vehicle control ([5]; Dose 0.04 uM): −0.014
- repSSMD.LYZ.S ([5]; Dose 0.04 uM): −0.157
- log10 fold change in stimulated lysozyme secretion vs vehicle control ([5]; Dose […]): −0.217
- Z.LYZ.S ([5]; dose 0.08 uM): 0.041
- log10 fold change in stimulated lysozyme secretion vs vehicle control ([5]; dose 0.08 uM): 0.005
- repSSMD.LYZ.S ([5]; dose 0.08 uM): 0.069
- Dose.FC.CTG ([6]; Dose 0.08 uM, ENR+CD, 6 days): 0.095 log 2 fold change
- Z.CTG ([6]; Dose 0.08 uM): 0.228
- Dose.FC.CTG ([6]; Dose 0.40 uM, ENR+CD, 6 days): −0.025 log 2 fold change
- Z.CTG ([6]; Dose 0.40 uM): −0.060
- Dose.FC.CTG ([6]; Dose 2.00 uM, ENR+CD, 6 days): 0.127 log 2 fold change
- Z.CTG ([6]; Dose 2.00 uM): 0.304
- Dose.FC.CTG ([6]; Dose 10.00 uM, ENR+CD, 6 days): −0.175 log 2 fold change
- Z.CTG ([6]; Dose 10.00 uM): −0.418

Structure (SMILES): CCc1cncnc1N1CCN(Cc2nc3ccc(C(F)(F)F)cc3[nH]2)CC1 [PF-4708671]
- Dose.FC.LYZ.NS ([1]; Dose 0.08 uM, primary screen): 0.075 log 2 fold change
- Z.LYZ.NS ([1]; Dose 0.08 uM): 0.654
- Dose.FC.LYZ.NS ([1]; Dose 0.40 uM, primary screen): 0.122 log 2 fold change
- Z.LYZ.NS ([1]; Dose 0.40 uM): 1.059
- Dose.FC.LYZ.NS ([1]; Dose 2.00 uM, primary screen): 0.198 log 2 fold change
- Z.LYZ.NS ([1]; Dose 2.00 uM): 1.721
- Dose.FC.LYZ.NS ([1]; Dose 10.00 uM, primary screen): 0.034 log 2 fold change
- Z.LYZ.NS ([1]; Dose 10.00 uM): 0.297
- Dose.FC.LYZ.S ([2]; Dose 0.08 uM, primary screen): 0.136 log 2 fold change
- Dose.FC.LYZ.S ([2]; Dose 0.40 uM, primary screen): 0.172 log 2 fold change
- Dose.FC.LYZ.S ([2]; Dose 2.00 uM, primary screen): 0.209 log 2 fold change
- Dose.FC.LYZ.S ([2]; Dose 10.00 uM, primary screen): −0.024 log 2 fold change
- Dose.FC.CTG ([3]; Dose 0.50 uM): −0.049
- Z.CTG ([3]; Dose 0.50 uM): −0.443
- repSSMD.CTG ([3]; Dose 0.50 uM): −0.324
- Dose.FC.CTG ([3]; Dose 1.00 uM): −0.039
- Z.CTG ([3]; Dose 1.00 uM): −0.354
- repSSMD.CTG ([3]; Dose 1.00 uM): −0.284
- Dose.FC.CTG ([3]; Dose 4.00 uM): 0.067
- Z.CTG ([3]; Dose 4.00 uM): 0.601
- repSSMD.CTG ([3]; Dose 4.00 uM): 0.414
- Dose.FC.CTG ([3]; dose 2.00 uM): −0.076
- Z.CTG ([3]; dose 2.00 uM): −0.684
- repSSMD.CTG ([3]; dose 2.00 uM): −0.558
- Dose.FC.LYZ.NS ([4]; Dose 0.50 uM): 0.005
- Z.LYZ.NS ([4]; Dose 0.50 uM): 0.039
- repSSMD.LYZ.NS ([4]; Dose 0.50 uM): 0.058
- Dose.FC.LYZ.NS ([4]; Dose 1.00 uM): −0.200
- Z.LYZ.NS ([4]; Dose 1.00 uM): −1.600
- repSSMD.LYZ.NS ([4]; Dose 1.00 uM): −1.909
- Dose.FC.LYZ.NS ([4]; Dose 4.00 uM): 0.015
- Z.LYZ.NS ([4]; Dose 4.00 uM): 0.120
- repSSMD.LYZ.NS ([4]; Dose 4.00 uM): 0.171
- Dose.FC.LYZ.NS ([4]; dose 2.00 uM): −0.221
- Z.LYZ.NS ([4]; dose 2.00 uM): −1.764
- repSSMD.LYZ.NS ([4]; dose 2.00 uM): −2.529
- Z.LYZ.S ([5]; Dose 0.50 uM): −0.305
- log10 fold change in stimulated lysozyme secretion vs vehicle control ([5]; Dose 0.50 uM): −0.040
- repSSMD.LYZ.S ([5]; Dose 0.50 uM): −0.496
- Z.LYZ.S ([5]; Dose 1.00 uM): −1.879
- log10 fold change in stimulated lysozyme secretion vs vehicle control ([5]; Dose 1.00 uM): −0.245
- repSSMD.LYZ.S ([5]; Dose 1.00 uM): −2.451
- Z.LYZ.S ([5]; Dose 4.00 uM): −0.320
- log10 fold change in stimulated lysozyme secretion vs vehicle control ([5]; Dose 4.00 uM): −0.042
- repSSMD.LYZ.S ([5]; Dose 4.00 uM): −0.503
- Z.LYZ.S ([5]; dose 2.00 uM): −2.088
- log10 fold change in stimulated lysozyme secretion vs vehicle control ([5]; dose 2.00 uM): −0.272
- repSSMD.LYZ.S ([5]; dose 2.00 uM): −3.604
- Dose.FC.CTG ([6]; Dose 0.08 uM, primary screen): 0.261 log 2 fold change
- Z.CTG ([6]; Dose 0.08 uM): 0.623
- Dose.FC.CTG ([6]; Dose 0.40 uM, primary screen): 0.268 log 2 fold change
- Z.CTG ([6]; Dose 0.40 uM): 0.640
- Dose.FC.CTG ([6]; Dose 2.00 uM, primary screen): 0.302 log 2 fold change
- Z.CTG ([6]; Dose 2.00 uM): 0.721
- Dose.FC.CTG ([6]; Dose 10.00 uM, primary screen): −0.321 log 2 fold change
- Z.CTG ([6]; Dose 10.00 uM): −0.766
